Assay results published in the supplement of paper PMC11451515.

Tested on: SEM cells
Assay: cell viability relative to DMSO control; higher = less cytotoxic
Settings: 48 h
Summary of the method: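 Viability values are per-plate percentages of DMSO wells, with background from cell-free wells. Library compounds in DMSO were pin-dosed, in an 11-point threefold series from 47 μM to 0.79 nM, onto NOMO1 or SEM (500 cells/well) or P12-Ichikawa (1000 cells/well) leukemia cells in 1536-well plates (5 μl). Those cells had been adapted for at least four passages in each medium, and CellTiter-Glo One luminescence was read after 48 h at 37°C.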

[1] = HPLM + 10% dialyzed FBS, 0.000781 µM
[2] = HPLM + 10% dialyzed FBS, 0.00234 µM
[3] = HPLM + 10% dialyzed FBS, 0.00702 µM
[4] = HPLM + 10% dialyzed FBS, 0.0211 µM
[5] = HPLM + 10% dialyzed FBS, 0.0632 µM
[6] = HPLM + 10% dialyzed FBS, 0.19 µM
[7] = HPLM + 10% dialyzed FBS, 0.569 µM
[8] = HPLM + 10% dialyzed FBS, 1.71 µM
[9] = HPLM + 10% dialyzed FBS, 5.12 µM
[10] = HPLM + 10% dialyzed FBS, 15.4 µM
[11] = HPLM + 10% dialyzed FBS, 46.1 µM
[12] = RPMI 5 mM glucose + 10% FBS, 0.000781 µM
[13] = RPMI 5 mM glucose + 10% FBS, 0.00234 µM
[14] = RPMI 5 mM glucose + 10% FBS, 0.00702 µM
[15] = RPMI 5 mM glucose + 10% FBS, 0.0211 µM
[16] = RPMI 5 mM glucose + 10% FBS, 0.0632 µM
[17] = RPMI 5 mM glucose + 10% FBS, 0.19 µM
[18] = RPMI 5 mM glucose + 10% FBS, 0.569 µM
[19] = RPMI 5 mM glucose + 10% FBS, 1.71 µM
[20] = RPMI 5 mM glucose + 10% FBS, 5.12 µM
[21] = RPMI 5 mM glucose + 10% FBS, 15.4 µM
[22] = RPMI 5 mM glucose + 10% FBS, 46.1 µM
[23] = RPMI 5 mM glucose + 10% dialyzed FBS, 0.000781 µM
[24] = RPMI 5 mM glucose + 10% dialyzed FBS, 0.00234 µM
[25] = RPMI 5 mM glucose + 10% dialyzed FBS, 0.00702 µM
[26] = RPMI 5 mM glucose + 10% dialyzed FBS, 0.0211 µM
[27] = RPMI 5 mM glucose + 10% dialyzed FBS, 0.0632 µM
[28] = RPMI 5 mM glucose + 10% dialyzed FBS, 0.19 µM
[29] = RPMI 5 mM glucose + 10% dialyzed FBS, 0.569 µM
[30] = RPMI 5 mM glucose + 10% dialyzed FBS, 1.71 µM
[31] = RPMI 5 mM glucose + 10% dialyzed FBS, 5.12 µM
[32] = RPMI 5 mM glucose + 10% dialyzed FBS, 15.4 µM
[33] = RPMI 5 mM glucose + 10% dialyzed FBS, 46.1 µM

Row | SMILES | cell viability [1] [%] | cell viability [2] [%] | cell viability [3] [%] | cell viability [4] [%] | cell viability [5] [%] | cell viability [6] [%] | cell viability [7] [%] | cell viability [8] [%] | cell viability [9] [%] | cell viability [10] [%] | cell viability [11] [%] | cell viability [12] [%] | cell viability [13] [%] | cell viability [14] [%] | cell viability [15] [%] | cell viability [16] [%] | cell viability [17] [%] | cell viability [18] [%] | cell viability [19] [%] | cell viability [20] [%] | cell viability [21] [%] | cell viability [22] [%] | cell viability [23] [%] | cell viability [24] [%] | cell viability [25] [%] | cell viability [26] [%] | cell viability [27] [%] | cell viability [28] [%] | cell viability [29] [%] | cell viability [30] [%] | cell viability [31] [%] | cell viability [32] [%] | cell viability [33] [%]
1 | Cc1ccc(-c2cc(C(F)(F)F)nn2-c2ccc([S+](N)(=O)[O-])cc2)cc1 | 112 | 113 | 106 | 125 | 119 | 126 | 121 | 122 | 106 | 109 | 91.3 | 84.8 | 109 | 110 | 110 | 126 | 122 | 122 | 102 | 102 | 105 | 83.9 | 120 | 121 | 126 | 127 | 120 | 123 | 120 | 111 | 117 | 140 | 87.4
2 | O=C(O)Cc1cccc(OCCCN(Cc2cccc(C(F)(F)F)c2Cl)CC(c2ccccc2)c2ccccc2)c1 | 109 | 118 | 109 | 97.8 | 113 | 102 | 110 | 100 | 93.5 | 103 | 94.5 | 98.3 | 93.6 | 95.1 | 101 | 86.3 | 84.5 | 92 | 89.5 | 87.3 | 84.8 | 96.4 | 111 | 111 | 109 | 135 | 119 | 113 | 126 | 103 | 96.1 | 99.2 | 111
3 | CC[C@@H]1C(=O)N(C)c2cnc(Nc3ccc(C(=O)NC4CCN(C)CC4)cc3OC)nc2N1C1CCCC1 | – | – | – | – | – | – | – | – | – | – | – | 104 | 125 | 114 | 116 | 39 | 19.9 | 20.8 | 17.8 | 13.5 | 7.48 | 3.43 | 117 | 128 | 105 | 128 | 37.9 | 23.2 | 22.1 | 18.9 | 11.1 | 6.14 | 3.08
4 | CCCCc1nc2cc(/C=C/C(=O)NO)ccc2n1CCN(CC)CC | 91.9 | 91.8 | 105 | 98.1 | 108 | 108 | 92.6 | 61.1 | 6.03 | 4.68 | 5.88 | 85.4 | 99.1 | 94.8 | 97.8 | 109 | 107 | 94 | 73 | 5.16 | 4.06 | 5.64 | 82.9 | 79.1 | 95.6 | 94 | 77.5 | 99.6 | 76.6 | 57.7 | 6.04 | 4.68 | 6.77
5 | CCCCCN(CCC12CC3CC(CC(C3)C1)C2)C(=O)NCCCc1ccncc1 | 96.2 | 110 | 108 | 106 | 102 | 109 | 107 | 106 | 107 | 102 | 89.9 | 97.1 | 92.9 | 100 | 106 | 112 | 110 | 97.3 | 114 | 96.9 | 108 | 100 | 86.9 | 96 | 106 | 110 | 105 | 107 | 106 | 116 | 120 | 90.6 | 97
6 | C[C@H](NCc1ccc(OCc2cccc(F)c2)cc1)C(N)=O | 81 | 102 | 102 | 107 | 97.6 | 76.7 | 58 | 42.3 | 29.6 | 30.7 | 9.65 | 102 | 99.9 | 106 | 100 | 106 | 92.1 | 60.1 | 44.1 | 26 | 22.1 | 10.9 | 78.5 | 99.8 | 102 | 85.1 | 102 | 67.1 | 47.6 | 27.9 | 21 | 20.6 | 13.2
7 | COc1cc2ncnc(Nc3cccc(Cl)c3)c2cc1OC | 99.7 | 112 | 93.1 | 105 | 77.8 | 62.7 | 53.5 | 30.7 | 32.4 | 31.3 | 4.45 | 121 | 118 | 113 | 119 | 76.8 | 50.2 | 50.7 | 19.1 | 7.71 | 6.3 | 4.71 | 98.5 | 111 | 93 | 102 | 77.7 | 58.8 | 59.1 | 22.8 | 19.3 | 9.12 | 3.77
8 | C=CC(=O)Nc1ccc2ncnc(Nc3ccc(OCc4cccc(F)c4)c(Cl)c3)c2c1 | 75.8 | 82.7 | 83.9 | 84.4 | 103 | 91.2 | 89.7 | 101 | 77.5 | 21.2 | 18.1 | 102 | 105 | 115 | 117 | 95.3 | 110 | 118 | 116 | 76.1 | 14.6 | 12.5 | 85.5 | 87.5 | 88.4 | 92.4 | 102 | 92.4 | 93 | 107 | 77 | 19.9 | 11.1
9 | Clc1ccccc1C(c1ccccc1)(c1ccccc1)n1ccnc1 | 118 | 114 | 126 | 121 | 117 | 119 | 112 | 55.8 | 103 | 104 | 73.3 | 117 | 110 | 126 | 123 | 118 | 108 | 106 | 53.3 | 101 | 86.6 | 69.6 | – | – | – | – | – | – | – | – | – | – | –
10 | CC(C)CC(N(C)C)C1(c2ccc(Cl)cc2)CCC1 (stereo unspecified) | 114 | 119 | 117 | 133 | 124 | 117 | 126 | 110 | 90.4 | 54.3 | 59.1 | 111 | 127 | 118 | 116 | 121 | 128 | 121 | 105 | 75 | 40.2 | 46.7 | – | – | – | – | – | – | – | – | – | – | –
11 | N#CC[C@H](C1CCCC1)n1cc(-c2ncnc3[nH]ccc23)cn1 | 100 | 104 | 103 | 103 | 94.1 | 85.9 | 103 | 90.1 | 63.7 | 39.6 | 24.5 | 103 | 111 | 86.6 | 108 | 109 | 96.1 | 92.7 | 107 | 50 | 23 | 19.8 | 98.9 | 97.7 | 98.1 | 97.9 | 113 | 99.6 | 96.8 | 87.3 | 63.3 | 31.6 | 26.3
12 | Oc1ccc2ccccc2c1SSc1c(O)ccc2ccccc12 | 95 | 102 | 109 | 116 | 106 | 85.8 | 99.5 | 96.2 | 108 | 97.3 | 9.05 | 104 | 109 | 95 | 102 | 111 | 79.1 | 103 | 99.4 | 104 | 78.9 | 30 | 95 | 99.6 | 84.3 | 113 | 92.5 | 66.9 | 93.1 | 104 | 87.6 | 74.7 | 20.1
13 | CC1=C(/C=C/C(C)=C/C=C/C(C)=C/C(=O)O)C(C)(C)CCC1 | 111 | 114 | 116 | 129 | 133 | 123 | 137 | 145 | 122 | 115 | 102 | 118 | 116 | 139 | 123 | 120 | 123 | 121 | 155 | 124 | 113 | 101 | 112 | 107 | 128 | 99.8 | 110 | 120 | 120 | 144 | 102 | 98.3 | 84.8
14 | CCOC(=O)[C@H]1O[C@@H]1C(=O)N[C@@H](CC(C)C)C(=O)NCCC(C)C | 116 | 119 | 109 | 125 | 120 | 132 | 69.4 | 114 | 118 | 118 | 109 | 111 | 99.4 | 102 | 96.2 | 110 | 88.4 | 91.1 | 124 | 107 | 104 | 94.6 | – | – | – | – | – | – | – | – | – | – | –
15 | Cc1cccc(-c2[nH]c(C(C)(C)C)nc2-c2ccc3c(c2)OCO3)n1 | 103 | 98.7 | 114 | 105 | 104 | 120 | 113 | 121 | 109 | 10.8 | 7.86 | – | – | – | – | – | – | – | – | – | – | – | 92.1 | 96.8 | 100 | 93 | 120 | 99.7 | 107 | 121 | 111 | 10.4 | 4.24
16 | COc1ccc(-c2oc3cc(OC)ccc3c2C(=O)c2ccc(C#N)cc2)cc1 | 114 | 117 | 120 | 121 | 128 | 136 | 129 | 141 | 131 | 142 | 125 | 93.2 | 109 | 133 | 127 | 130 | 140 | 139 | 148 | 136 | 123 | 124 | 113 | 123 | 144 | 124 | 150 | 175 | 162 | 174 | 147 | 136 | 136
17 | Cc1cccc2c1CC[C@H](CN1CCC(c3c(Cl)cccc3Cl)CC1)C[C@@H]2O | 71 | 98.2 | 113 | 111 | 128 | 114 | 116 | 122 | 101 | 96.6 | 79.9 | 112 | 138 | 120 | 127 | 130 | 111 | 142 | 133 | 108 | 72.5 | 58 | 88.5 | 109 | 118 | 126 | 120 | 95.8 | 104 | 112 | 91.9 | 70.6 | 58.3
